Measured values published in EP0504184B1, “ACTIVE AGENT AGAINST RETROVIRUS GROUP VIRUSES, COMPOSITIONS CONTAINING SAME AND THEIR USE” (PREVISAN S.A., priority 1989, dated 1991).

Tests used:
[1] = tested on: virus VIH-1 dans des lymphocytes humains infectés; test: p24 antigen of treated HIV-1 infected human lymphocytes (optical density); type: cell-based; settings: chloroazodine 1/3000
Excerpt: On a reproduit l'expérience de l'exemple 7, mais avec des lymphocytes humains infectés par du VIH-1. La chloroazodine a été utilisée à la dose de 1/3000 pendant 1 heure, 3 heures et 6 heures sur les cellules infectées. Tableau 6
Afin de conserver un nombre suffisant de lymphocytes vivants il a fallu limiter l'expérimentation à 6 heures.

cellules Supt-1 = test: Toxicity test of chloroazodine towards Supt-1 cells (cell viability); type: cell-based, humaine
Excerpt: Ces essais comprennent comme matériel de départ : • de la N, N'-dichloroazodicarbonamidine (chloroazodine) à 95 % pure. La pureté a été examinée par chromatographie en couche mince et par un test de carbone-hydrogène (v. BRAZ G.I. et cons., J. Applied Chem. (USSR) 17,565-9 (1944)). • un surnageant de cultures de cellules (Molt-3) continuellement productrices de virus VIH-1. Le surnageant viral utilisé a une activité de transcriptase inverse de 1 x 10^6 cpm/ml. • des cellules d'une lignée T humaine continue de phénotype T4 (Supt-1) cultivée en milieu RPMI, additionné de 10 % de sérum de veau foetal et de 1 % de glutamine.
Essai de toxicité de la chloroazodine vis-à-vis des cellules Supt-1.
La chloroazodine à la dilution de 1/500, ce qui correspond à 2 mg/ml, est toxique pour les cellules Supt-1.

NC(N=NC(N)=NCl)=NCl [chloroazodine, N, N'-dichloroazodicarbonamidine]
Mesure du pouvoir infectieux des virus VIH-1 dans des lymphocytes humains infectés (densité optique) ([1]; treatment 1 hour, 4 days after treatment): 0,170 | Mesure du pouvoir infectieux des virus VIH-1 dans des lymphocytes humains infectés (densité optique) ([1]; treatment 1 hour, 7 days after treatment): 0,170 | Mesure du pouvoir infectieux des virus VIH-1 dans des lymphocytes humains infectés (densité optique) ([1]; treatment 1 hour, 11 days after treatment): 0,114 | Mesure du pouvoir infectieux des virus VIH-1 dans des lymphocytes humains infectés (densité optique) ([1]; treatment 3 hours, 4 days after treatment): 0,197 | Mesure du pouvoir infectieux des virus VIH-1 dans des lymphocytes humains infectés (densité optique) ([1]; treatment 3 hours, 7 days after treatment): 0,158 | Mesure du pouvoir infectieux des virus VIH-1 dans des lymphocytes humains infectés (densité optique) ([1]; treatment 3 hours, 11 days after treatment): 0,095 | Mesure du pouvoir infectieux des virus VIH-1 dans des lymphocytes humains infectés (densité optique) ([1]; treatment 6 hours, 4 days after treatment): 0,192 | Mesure du pouvoir infectieux des virus VIH-1 dans des lymphocytes humains infectés (densité optique) ([1]; treatment 6 hours, 7 days after treatment): 0,203 | Mesure du pouvoir infectieux des virus VIH-1 dans des lymphocytes humains infectés (densité optique) ([1]; treatment 6 hours, 11 days after treatment): 0,078 | toxicité vis-à-vis des cellules Supt-1 (cellules Supt-1; dilution 1/500 (2 mg/ml)): toxique | viabilité cellulaire (cellules Supt-1) (cellules Supt-1; dilution 1/1500 (660 µg/ml)): ne diminuent par contre pas la viabilité cellulaire | viabilité cellulaire (cellules Supt-1) (cellules Supt-1; dilution 1/3000 (330 µg/ml)): ne diminuent par contre pas la viabilité cellulaire
